Test results as given in ChEMBL document CHEMBL4842322, “A naphthalimide-polyamine conjugate preferentially accumulates in hepatic carcinoma metastases as a lysosome-targeted antimetastatic agent” (Eur J Med Chem, 2021).

Legend:
Format in all cases: functional, cell-based
MCF7 = assay: Cytotoxicity against human MCF7 cells assessed as inhibition of cell growth incubated for 48 hrs by MTT assay; conditions: MCF7, 48 h
A549 [1] = assay: Cytotoxicity against human A549 cells assessed as inhibition of cell growth incubated for 48 hrs by MTT assay; conditions: A549, 48 h
MDA-MB-231 = assay: Cytotoxicity against human MDA-MB-231 cells assessed as inhibition of cell growth incubated for 48 hrs by MTT assay; conditions: MDA-MB-231, 48 h
Huh-7 = assay: Cytotoxicity against human Huh-7 cells assessed as inhibition of cell growth incubated for 48 hrs by MTT assay; conditions: Huh-7, 48 h
HepG2 = assay: Cytotoxicity against human HepG2 cells assessed as inhibition of cell growth incubated for 48 hrs by MTT assay; conditions: HepG2, 48 h
A549 [2] = assay: Cytotoxicity against cisplatin-resistant human A549 cells assessed as inhibition of cell growth incubated for 48 hrs by MTT assay; conditions: A549, 48 h

In the case of NCCCCNCCCCN1C(=O)c2cccc3cc(NC(=O)CN)cc(c23)C1=O, the IC50 (MCF7) is reported as > 30 µM, the IC50 (A549 [1]) is reported as > 30 µM and the IC50 (MDA-MB-231) is reported as > 30 µM. The IC50 (Huh-7) was 28.7 µM, the IC50 (HepG2) was > 30 µM and the IC50 (A549 [2]) was > 30 µM.
